Measurements taken from the supplement of paper PMC11451515.

Columns and labels:
Conditions in all cases: 48 h
[1] = test system: NOMO1; experiment: AUC of viability dose-response curve (% viability x log10 dose units); higher = less sensitive
Summary of the method: (§1)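 Over 48 h at 37°C, leukemia cells in 1536-well plates (500 or 1000 cells/well), adapted to each medium, received library compounds in DMSO at 11 threefold doses from 47 μM to 0.79 nM. CellTiter-Glo One luminescence, normalised per plate to DMSO and cell-free wells, was fitted by a four-parameter log-logistic function of log10 dose. The area under the curve was then integrated by trapezoidal rule, after scaling curves above full viability and removing those that failed quality control.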

[2] = test system: SEM cells; experiment: as above
Summary of the method: as §1

[3] = test system: P12-Ichikawa; experiment: as above
Summary of the method: as §1

[4] = test system: NOMO1; experiment: cell viability relative to DMSO control; higher = less cytotoxic
Summary of the method: (§2)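 Library compounds in DMSO were pin-dosed into 1536-well plates (5 μl) holding NOMO1 or SEM (500 cells/well) or P12-Ichikawa (1000 cells/well) leukemia cells, across an 11-point threefold series of 47 μM to 0.79 nM. Each cell line had been adapted for at least four passages in each medium. CellTiter-Glo One luminescence was read after 48 h at 37°C. Viability is the per-plate percentage relative to DMSO wells, with cell-free wells as background.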

[5] = test system: SEM cells; experiment: as above
Summary of the method: as §2

[6] = test system: P12-Ichikawa; experiment: as above
Summary of the method: as §2

[7] = RPMI 5 mM glucose + 10% dialyzed FBS
[8] = HPLM + 10% dialyzed FBS, 0.000781 µM
[9] = HPLM + 10% dialyzed FBS, 0.00234 µM
[10] = HPLM + 10% dialyzed FBS, 0.00702 µM
[11] = HPLM + 10% dialyzed FBS, 0.0211 µM
[12] = HPLM + 10% dialyzed FBS, 0.0632 µM
[13] = HPLM + 10% dialyzed FBS, 0.19 µM
[14] = HPLM + 10% dialyzed FBS, 0.569 µM
[15] = HPLM + 10% dialyzed FBS, 1.71 µM
[16] = HPLM + 10% dialyzed FBS, 5.12 µM
[17] = HPLM + 10% dialyzed FBS, 15.4 µM
[18] = HPLM + 10% dialyzed FBS, 46.1 µM
[19] = RPMI 5 mM glucose + 10% FBS, 0.000781 µM
[20] = RPMI 5 mM glucose + 10% FBS, 0.00234 µM
[21] = RPMI 5 mM glucose + 10% FBS, 0.00702 µM
[22] = RPMI 5 mM glucose + 10% FBS, 0.0211 µM
[23] = RPMI 5 mM glucose + 10% FBS, 0.0632 µM
[24] = RPMI 5 mM glucose + 10% FBS, 0.19 µM
[25] = RPMI 5 mM glucose + 10% FBS, 0.569 µM
[26] = RPMI 5 mM glucose + 10% FBS, 1.71 µM
[27] = RPMI 5 mM glucose + 10% FBS, 5.12 µM
[28] = RPMI 5 mM glucose + 10% FBS, 15.4 µM
[29] = RPMI 5 mM glucose + 10% FBS, 46.1 µM
[30] = RPMI 5 mM glucose + 10% dialyzed FBS, 0.000781 µM
[31] = RPMI 5 mM glucose + 10% dialyzed FBS, 0.00234 µM
[32] = RPMI 5 mM glucose + 10% dialyzed FBS, 0.00702 µM
[33] = RPMI 5 mM glucose + 10% dialyzed FBS, 0.0211 µM
[34] = RPMI 5 mM glucose + 10% dialyzed FBS, 0.0632 µM
[35] = RPMI 5 mM glucose + 10% dialyzed FBS, 0.19 µM
[36] = RPMI 5 mM glucose + 10% dialyzed FBS, 0.569 µM
[37] = RPMI 5 mM glucose + 10% dialyzed FBS, 1.71 µM
[38] = RPMI 5 mM glucose + 10% dialyzed FBS, 5.12 µM
[39] = RPMI 5 mM glucose + 10% dialyzed FBS, 15.4 µM
[40] = RPMI 5 mM glucose + 10% dialyzed FBS, 46.1 µM

SMILES: O=C(c1ccc(F)c(F)c1Nc1ccc(I)cc1F)N1CC(O)([C@@H]2CCCCN2)C1
- AUC of viability dose-response curve ([1]; HPLM + 10% dialyzed FBS): 305
- AUC of viability dose-response curve ([1]; RPMI 5 mM glucose + 10% FBS): 292
- AUC of viability dose-response curve [1, 7]: 304
- AUC of viability dose-response curve ([2]; HPLM + 10% dialyzed FBS): 410
- AUC of viability dose-response curve ([2]; RPMI 5 mM glucose + 10% FBS): 434
- AUC of viability dose-response curve [2, 7]: 425
- AUC of viability dose-response curve ([3]; HPLM + 10% dialyzed FBS): 410
- AUC of viability dose-response curve ([3]; RPMI 5 mM glucose + 10% FBS): 403
- AUC of viability dose-response curve [3, 7]: 419
- cell viability [4, 8]: 96.3%
- cell viability [4, 9]: 91.9%
- cell viability [4, 10]: 97.4%
- cell viability [4, 11]: 108%
- cell viability [4, 12]: 90.9%
- cell viability [4, 13]: 70.1%
- cell viability [4, 14]: 56.4%
- cell viability [4, 15]: 41.8%
- cell viability [4, 16]: 15.1%
- cell viability [4, 17]: 13.3%
- cell viability [4, 18]: 14.3%
- cell viability [4, 19]: 91.4%
- cell viability [4, 20]: 99.9%
- cell viability [4, 21]: 98.2%
- cell viability [4, 22]: 93.4%
- cell viability [4, 23]: 92.5%
- cell viability [4, 24]: 74.1%
- cell viability [4, 25]: 61.8%
- cell viability [4, 26]: 29.1%
- cell viability [4, 27]: 8.07%
- cell viability [4, 28]: 7.33%
- cell viability [4, 29]: 5.28%
- cell viability [4, 30]: 89.4%
- cell viability [4, 31]: 99%
- cell viability [4, 32]: 93.9%
- cell viability [4, 33]: 102%
- cell viability [4, 34]: 100%
- cell viability [4, 35]: 69.7%
- cell viability [4, 36]: 58.6%
- cell viability [4, 37]: 44.1%
- cell viability [4, 38]: 10.1%
- cell viability [4, 39]: 10.2%
- cell viability [4, 40]: 11.6%
- cell viability [5, 8]: 75.2%
- cell viability [5, 9]: 92.2%
- cell viability [5, 10]: 98.2%
- cell viability [5, 11]: 99.8%
- cell viability [5, 12]: 85.4%
- cell viability [5, 13]: 83.6%
- cell viability [5, 14]: 105%
- cell viability [5, 15]: 97%
- cell viability [5, 16]: 69.2%
- cell viability [5, 17]: 71.4%
- cell viability [5, 18]: 60.8%
- cell viability [5, 19]: 98.8%
- cell viability [5, 20]: 88.6%
- cell viability [5, 21]: 100%
- cell viability [5, 22]: 104%
- cell viability [5, 23]: 98.1%
- cell viability [5, 24]: 100%
- cell viability [5, 25]: 92.5%
- cell viability [5, 26]: 99.1%
- cell viability [5, 27]: 77.8%
- cell viability [5, 28]: 71.6%
- cell viability [5, 29]: 55.1%
- cell viability [5, 30]: 82.8%
- cell viability [5, 31]: 96.3%
- cell viability [5, 32]: 97.4%
- cell viability [5, 33]: 111%
- cell viability [5, 34]: 104%
- cell viability [5, 35]: 96.6%
- cell viability [5, 36]: 86.2%
- cell viability [5, 37]: 92.7%
- cell viability [5, 38]: 68.5%
- cell viability [5, 39]: 76.9%
- cell viability [5, 40]: 60.1%
- cell viability [6, 8]: 93.9%
- cell viability [6, 9]: 102%
- cell viability [6, 10]: 102%
- cell viability [6, 11]: 111%
- cell viability [6, 12]: 109%
- cell viability [6, 13]: 108%
- cell viability [6, 14]: 100%
- cell viability [6, 15]: 99%
- cell viability [6, 16]: 93.6%
- cell viability [6, 17]: 12.6%
- cell viability [6, 18]: 11.1%
- cell viability [6, 19]: 97.3%
- cell viability [6, 20]: 102%
- cell viability [6, 21]: 112%
- cell viability [6, 22]: 97.8%
- cell viability [6, 23]: 101%
- cell viability [6, 24]: 104%
- cell viability [6, 25]: 87.5%
- cell viability [6, 26]: 93%
- cell viability [6, 27]: 82.7%
- cell viability [6, 28]: 12.8%
- cell viability [6, 29]: 7.93%
- cell viability [6, 30]: 88.6%
- cell viability [6, 31]: 114%
- cell viability [6, 32]: 115%
- cell viability [6, 33]: 116%
- cell viability [6, 34]: 111%
- cell viability [6, 35]: 108%
- cell viability [6, 36]: 114%
- cell viability [6, 37]: 105%
- cell viability [6, 38]: 96.2%
- cell viability [6, 39]: 36.8%
- cell viability [6, 40]: 14.8%
